From patent publication US12440496B2, “Natriuretic peptide receptor a agonists useful for the treatment of cardiometabolic diseases, kidney disease and diabetes” (Merck Sharp & Dohme LLC, priority 2019, dated 2025)
Structures can show the parent of a compound that is named as a salt.

Target: T1, hNPRA (Homo sapiens, UniProt P16066)
T1 construct: expressed in transfected cells
T1 sequence (P16066 33-1061): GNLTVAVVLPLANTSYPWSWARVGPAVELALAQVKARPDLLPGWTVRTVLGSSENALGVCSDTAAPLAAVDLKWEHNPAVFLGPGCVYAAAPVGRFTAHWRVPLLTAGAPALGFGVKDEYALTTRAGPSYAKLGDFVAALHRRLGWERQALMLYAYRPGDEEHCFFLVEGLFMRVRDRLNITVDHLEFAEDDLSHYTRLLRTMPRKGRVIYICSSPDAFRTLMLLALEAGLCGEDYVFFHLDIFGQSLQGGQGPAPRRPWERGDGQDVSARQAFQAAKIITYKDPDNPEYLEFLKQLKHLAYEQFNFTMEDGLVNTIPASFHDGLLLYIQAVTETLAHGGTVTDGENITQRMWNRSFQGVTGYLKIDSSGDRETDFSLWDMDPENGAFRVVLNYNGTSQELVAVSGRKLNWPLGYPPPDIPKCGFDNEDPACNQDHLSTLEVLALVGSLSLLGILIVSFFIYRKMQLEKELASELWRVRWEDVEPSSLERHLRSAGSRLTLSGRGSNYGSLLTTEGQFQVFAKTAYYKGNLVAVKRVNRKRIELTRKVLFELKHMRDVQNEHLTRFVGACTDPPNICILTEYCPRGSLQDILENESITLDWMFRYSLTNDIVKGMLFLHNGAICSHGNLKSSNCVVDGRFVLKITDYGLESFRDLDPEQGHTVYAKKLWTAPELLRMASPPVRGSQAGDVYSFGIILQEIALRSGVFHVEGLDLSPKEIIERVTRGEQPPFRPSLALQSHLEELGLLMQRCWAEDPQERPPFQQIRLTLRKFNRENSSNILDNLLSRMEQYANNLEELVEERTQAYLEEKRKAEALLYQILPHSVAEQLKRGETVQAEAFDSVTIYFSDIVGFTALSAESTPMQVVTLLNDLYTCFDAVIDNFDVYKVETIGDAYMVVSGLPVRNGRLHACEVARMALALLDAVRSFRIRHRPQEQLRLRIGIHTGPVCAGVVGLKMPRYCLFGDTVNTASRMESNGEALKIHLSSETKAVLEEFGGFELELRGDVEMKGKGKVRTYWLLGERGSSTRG
Assay: NPRA Functional Cell Assay (cGMP HTRF, NPRA HEK JumpIn stable cells)
Type: cell-based
Details: cGMP production, 1 hour at 37° C., 10-point dose response
Summary of the method: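 cGMP HTRF read-out after 1 hour compound treatment at 37° C. of human NPRA-expressing HEK JumpIn cells, 1500 cells/well, in buffer with phosphodiesterase inhibitors IBMX and RO20 (100 uM each). Signal converted to [cGMP] by calibration curve; EC50s fitted by 4-parameter logistic; 50 nM h-ANP as positive response.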

EC50 [nM]	Structure (SMILES)
914	Cn1nccc1-c1ccc([C@@H](CCN2CCC(O)CC2)NC(=O)c2nc3cc4c(nc3s2)CC[C@H](C(C)(C)C)C4)cc1 (racemic) [Example 81, rac-(7S)-7-tert-butyl-N-[rac-(1R)-3-(4-hydroxypiperidin-1-ium-1-yl)-1-[4-(2-methylpyrazol-3-yl)phenyl]propyl]-5,6,7,8-tetrahydrothiazolo[5,4-b]quinoline-2-carboxamide; formate]
511	CC(C)(C)[C@H]1CCc2nc3sc(C(=O)N[C@H](CCN4CCCC4)c4ccc(-c5ccc(=O)[nH]c5)cc4)cc3cc2C1 (racemic) [Example 33, rac-(6S)-6-tert-butyl-N-[rac-(1R)-1-[4-(6-oxo-1H-pyridin-3-yl)phenyl]-3-pyrrolidin-1-ium-1-yl-propyl]-5,6,7,8-tetrahydrothieno[2,3-b]quinoline-2-carboxamide;formate]
102	CC(C)(C)[C@H]1CCc2nc3sc(C(=O)N[C@H](CCN4CCC(O)CC4)c4cccc(C(=O)N5CC(CN6CCCC6)C5)c4)nc3cc2C1 (racemic) [Example 132, rac-(7S)-7-tert-butyl-N-[rac-(1R)-3-(4-hydroxy-1-piperidyl)-1-[3-[3-(pyrrolidin-1-ylmethyl)azetidine-1-carbonyl]phenyl]propyl]-5,6,7,8-tetrahydrothiazolo[5,4-b]quinoline-2-carboxamide]
663	COC[C@@H]1CCCN1CC[C@@H](NC(=O)c1cc2cc3c(nc2s1)CC[C@H](C(C)(C)C)C3)c1ccc(-c2ccc(=O)[nH]c2)cc1 (racemic) [Example 43, rac-(6S)-6-tert-butyl-N-[rac-(1R)-1-[4-(6-oxo-1H-pyridin-3-yl)phenyl]-3-[rac-(2S)-2-(methoxymethyl)pyrrolidin-1-yl]propyl]-5,6,7,8-tetrahydrothieno[2,3-b]quinoline-2-carboxamide]
126	CN1CC[C@@H](NC(=O)c2cccc([C@@H](CCN3CCC(O)CC3)NC(=O)c3nc4cc5c(nc4s3)CC[C@H](C(C)(C)C)C5)c2)C1 (racemic) [Example 134, rac-(7S)-7-tert-butyl-N-[rac-(1R)-3-(4-hydroxy-1-piperidyl)-1-[3-[[rac-(3R)-1-methylpyrrolidin-3-yl]carbamoyl]phenyl]propyl]-5,6,7,8-tetrahydrothiazolo[5,4-b]quinoline-2-carboxamide]
230	CN(C)CC[C@@H](NC(=O)c1nc2cc3c(nc2s1)CC[C@H](C(C)(C)C)C3)c1cccc(C(=O)N[C@H]2CCNC2)c1 (racemic) [Example 89, rac-(7S)-7-tert-butyl-N-[rac-(1R)-3-(dimethylamino)-1-[3-[rac-(3S)-pyrrolidin-3-yl]carbamoyl]phenyl] propyl]-5,6,7,8-tetrahydrothiazolo[5,4-b] quinoline-2-carboxamide]
374	CC(C)(C)[C@H]1CCc2nc3sc(C(=O)N[C@H](CCN4CCC(O)CC4)c4ccc(-c5csc(C(=O)O)c5)cc4)nc3cc2C1 (racemic) [Example 126, 4-[4-[rac-(1R)-3-(4-hydroxy-1-piperidyl)-1-[[rac-(7S)-7-tert-butyl-5,6,7,8-tetrahydrothiazolo[5,4-b]quinoline-2-carbonyl]amino]propyl]phenylthiophene-2-carboxylic acid]
674	CN(CCO)CC[C@@H](NC(=O)c1nc2cc3c(nc2s1)CC[C@H](C(C)(C)C)C3)c1ccc(NS(=O)(=O)N(C)C)nc1 (racemic) [Example 206, 2-hydroxyethyl-methyl-[rac-(3R)-3-[6-(dimethylsulfamoylamino)-3-pyridyl]-3-[[rac-(7S)-7-tert-butyl-5,6,7,8-tetrahydrothiazolo[5,4-b]quinoline-2-carbonyl]amino]propyl]ammonium; 2,2,2-trifluoroacetate]
1380	CC(C)(C)[C@H]1CCc2nc3sc(C(=O)N[C@H](CCN4CCC(O)CC4)c4ccc(N5CCC(O)CC5)nc4)nc3cc2C1 (racemic) [Example 189, rac-(7S)-7-tert-butyl-N-[rac-(1R)-3-(4-hydroxy-1-piperidyl)-1-[6-(4-hydroxy-1-piperidyl)-3-pyridyl]propyl]-5,6,7,8-tetrahydrothiazolo[5,4-b]quinoline-2-carboxamide]
462	CN1C(=O)OCC12CN(C(=O)c1cccc([C@@H](CCN3CCC(O)CC3)NC(=O)c3nc4cc5c(nc4s3)CC[C@H](C(C)(C)C)C5)c1)C2 (racemic) [Example 144, rac-(7S)-7-tert-butyl-N-[rac-(1R)-3-(4-hydroxy-1-piperidyl)-1-[3-(5-methyl-6-oxo-7-oxa-2,5-diazaspiro[3.4]octane-2-carbonyl)phenyl]propyl]-5,6,7,8-tetrahydrothiazolo[5,4-b]quinoline-2-carboxamide]
886	CC(C)(C)[C@H]1CCc2nc3sc(C(=O)N[C@H](CCN4CCC[C@H]4CO)c4ccccc4)cc3cc2C1 [Example 257, (6S)-6-tert-butyl-N-{(1R)-3-[(2S)-2-(hydroxymethyl)pyrrolidin-1-yl]-1-phenylpropyl}-5,6,7,8-tetrahydrothieno[2,3-b]quinoline-2-carboxamide]
6300	CC(C)(C)[C@H]1CCc2nc3sc(C(=O)N[C@H](CCN4CCC(F)CC4)c4ccccc4)cc3cc2C1 [Example 252, (6S)-6-tert-butyl-N-[(1R)-3-(4-fluoropiperidin-1-yl)-1-phenylpropyl]-5,6,7,8-tetrahydrothieno[2,3-b]quinoline-2-carboxamide]
1820	CC(C)(C)[C@H]1CCc2nc3sc(C(=O)N[C@H](CCN4CCC(CO)C4)c4ccccc4)cc3cc2C1 (stereo partly drawn) [Example 259, (6S)-6-tert-butyl-N-{(1R)-3-[3-(hydroxymethyl)pyrrolidin-1-yl]-1-phenylpropyl}-5,6,7,8-tetrahydrothieno[2,3-b]quinoline-2-carboxamide]
754	CN1CC(NC(=O)c2cccc([C@@H](CCN3CCC(C(=O)O)C3)NC(=O)c3nc4cc5c(nc4s3)CC[C@H](C(C)(C)C)C5)c2)C1 (mixture of isomers) [Example 112, rac-(3R)-1-[rac-(3R)-3-[3-[(1-methylazetidin-1-ium-3-yl)carbamoyl]phenyl]-3-[rac-(7S)-7-tert-butyl-5,6,7,8-tetrahydrothiazolo[5,4-b]quinoline-2-carbonyl]amino]propyl]pyrrolidine-3-carboxylic acid; 2,2,2-trifluoroacetate]
120	CC1([C@H]2CCc3nc4sc(C(=O)N[C@H](CCN5CCC(O)CC5)c5ccc(-c6c[nH]c(=O)c(F)c6)cc5)nc4cc3C2)CC1 [Example 234, (S)-N-((R)-1-(4-(5-fluoro-6-oxo-1,6-dihydropyridin-3-yl)phenyl)-3-(4-hydroxypiperidin-1-yl)propyl)-7-(1-methylcyclopropyl)-5,6,7,8-tetrahydrothiazolo[5,4-b]quinoline-2-carboxamide]
632	CC(C)(C)[C@H]1CCc2nc3sc(C(=O)N[C@H](CCN4CCC(O)CC4)c4ccccc4)cc3cc2C1 [Example 250, (6S)-6-tert-butyl-N-[(1R)-3-(4-hydroxypiperidin-1-yl)-1-phenylpropyl]-5,6,7,8-tetrahydrothieno[2,3-b]quinoline-2-carboxamide]
6320	CC(C)(C)[C@H]1CCc2nc3sc(C(=O)NC(CCN4CCOCC4)c4ccccc4)cc3cc2C1 (stereo partly drawn) [Example 243, (6S)-6-tert-butyl-N-(3-morpholin-4-yl-1-phenylpropyl)-5,6,7,8-tetrahydrothieno[2,3-b]quinoline-2-carboxamide]
138	CC(C)(C)[C@H]1CCc2nc3sc(C(=O)N[C@H](CCN4CCC(O)CC4)c4cccc(C(=O)NC5CNC5)c4)nc3cc2C1 (racemic) [Example 136, rac-(7S)-7-tert-butyl-N-[rac-(1R)-1-[3-(azetidin-3-ylcarbamoyl)phenyl]-3-(4-hydroxy-1-piperidyl)propyl]-5,6,7,8-tetrahydrothiazolo[5,4-b]quinoline-2-carboxamide]
1670	CC(C)(C)[C@H]1CCc2nc3sc(C(=O)N[C@H](CCN4CCC(O)CC4)c4cccc(N5CCOC5=O)c4)nc3cc2C1 (racemic) [Example 120, rac-(7S)-7-tert-butyl-N-[rac-(1R)-3-(4-hydroxypiperidin-1-ium-1-yl)-1-[3-(2-oxooxazolidin-3-yl)phenyl]propyl]-5,6,7,8-tetrahydrothiazolo[5,4-b] quinoline-2-carboxamide; 2,2,2-trifluoroacetate]
